Data from US12122783B2, “Stable salt of 5,10-methylene-(6R)-tetrahydrofolic acid” (MERCK & CIE, priority 2013, dated 2024).
Counter-ions that a name gives are not always drawn.

Assays:
[1] = Comparative long-term stability of sulfate salt, content by HPLC; type: physicochemical
Experimental: In order to compare the long-term stabilities of (6R)-5,10-CH2-THF hemisulfate salt, the compounds of the invention, to the long-term stabilities of (6R)-5,10-CH2-THF sulfate salt prepared according to EP 0 537 492 B1, stability data for (6R)-5,10-CH2-THF sulfate salt has been generated at various temperatures and humidities. • (a) Stability of (6R)-5,10-CH2-THF sulfate
(6R)-5,10-CH2-THF sulfate salt was prepared according to literature procedures (EP 0 537 492 B1) and stored for 15 month at −20° C. Subsequently, samples of the product were stored at 5° C. resp. at 25° C. and 60% relative humidity resp. at 40° C. and 75% relative humidity. The content of (6R)-5,10-CH2-THF sulfate salt remaining in the sample was measured by HPLC at periodic intervals. The content of (6R)-5,10-CH2-THF sulfate was compared to the initial value at the time of preparation (% rel.).

[2] = Suspension equilibration stability in solvents and mixtures; type: physicochemical
Text: • (a) Suspension equilibration of (6R)-5,10-CH2-THF hemisulfate salt as starting material at temperatures other than room temperature in a variety of solvents and mixture are summarized in Table 10: […]

[3] = Long-term stability of lyophilisates stored in air, content by HPLC; type: physicochemical; conditions: room temperature, pharmaceutical composition such as a lyophilisate
Experimental: (§1) In order to determine the long-term stabilities of (6R)-5,10-CH2-THF hemisulfate salt as pharmaceutical compositions, more specifically as lyophilisates (as prepared according to e.g. Example 5), lyophilisates were stored in air at 25° C. and at 60% relative humidity. The content of (6R)-5,10-CH2-THF hemisulfate salt remaining was measured by HPLC at periodic intervals and is given by comparison with the initial value (% rel.).

[4] = TG-FTIR thermogram under N2 flow; type: physicochemical; conditions: 10 K min^−1
Experimental: TG-FTIR (Netzsch Thermo-Microbalance TG 209 with Bruker FT-IR Spectrometer IFS 28): Al crucible (with microhole); N2 atmosphere; 10 K min^−1 heating rate; 25° C. to 300° C. range.
• (a) The FT Raman spectrum of (6R)-5,10-CH2-THF hemisulfate salt, recorded using a nominal laser power level of 300 mW and 64 scans is shown in FIG. 1. • (b) The corresponding powder X-ray diffractogram, recorded in transmission mode, is shown in FIG. 2. • (c) The TG-FTIR thermogram of (6R)-5,10-CH2-THF hemisulfate salt is shown in FIG. 3. It was carried out under N2 flow (to avoid oxidative degradation). […] Prior to the first heating scan, the sample was equilibrated for three minutes under gaseous nitrogen flow and lost 0.6 wt.-% of its mass during that time. This is consistent with the water content observed in the TG-FTIR thermogram (see FIG. 3) and confirms that this water is loosely bound. The sample was subsequently heated in a closed gold crucible to 254° C. at 10 K min^−1, quench cooled to −50° C., and heated a second time at 10 K min^−1. […] No other thermal events were observed up to 250° C. • (e) The IR spectrum was recorded in a pressed KBr pellet and the characteristic absorption bands are shown in Table 3. • (f) The ^1H NMR spectrum of (6R)-5,10-CH2-THF hemisulfate salt was recorded in DMSO-d6 and the chemical shifts (d) in ppm are shown in Table 8.

[5] = Phase I/II study ISO-CC-002, pharmacokinetics/pharmacodynamics versus Levoleucovorin in tumor tissue, adjacent mucosa and blood plasma; type: in vivo; conditions: colon cancer patients
Experimental: (b) In a single-blinded, randomized phase I/II study (ISO-CC-002) performed on 32 patients diagnosed with colon cancer the pharmacokinetic and pharmacodynamic properties of (6R)-5,10-CH2-THF hemisulfate compared to Levoleucovorin in tumor tissue, adjacent mucosa and blood plasma were investigated. The study was performed at the Sahlgrenska University Hospital in Göteborg, Sweden. […] The concentrations of methylenetetrahydrofolate and tetrahydrofolate in both tumor and adjacent mucosa were also much higher after administration of (6R)-5,10-CH2-THF hemisulfate than those obtained after administration of Levoleucovorin.

rats = conditions: rat, in vivo, 100 mg/kg/day
dogs = conditions: dog, in vivo, 50 mg/kg/day
[6] = Stability in 85% ethanol at room temperature (XRPD); type: physicochemical; conditions: 85% EtOH, stirred 5 h, filtered and dried
Experimental: (§2) Powder X-Ray Diffraction (Bruker D8 Advance): Copper Kα radiation, 40 kV/40 mA, LynxEye detector, Bragg-Brentano reflection geometry, 0.02° 2θ step size, 37 s step time, 2.5-50° 2θ range. Powder samples were measured in 0.1-mm or 0.5-mm deep silicon single-crystal sample holders. No special treatment was used in preparing the samples other than the application of slight pressure to get a flat surface. An ambient air atmosphere was used for all measurements, and the samples were rotated during the measurement. Absent any information to the contrary X-Ray Diffraction data is shown as reflection data.
• (b) Stability in 85% ethanol at room temperature
(§3) (6R)-5,10-CH2-THF hemisulfate salt (3.01 g) was dispersed in 100 ml 85% EtOH at room temperature and stirred for 5 h, then filtered and dried at 30° C. and 8 mbar for 12 hours (over night).

[7] = Stability at high temperature/low pressure (XRPD); type: physicochemical; conditions: drying chamber 65 °C, 8 mbar, 21 h
Experimental: as §2, §3
(6R)-5,10-CH2-THF hemisulfate salt (2.17 g) was placed in a drying chamber at 65° C. and 8 mbar for 21 h.

[8] = Long-term stability of hemisulfate salt stored in air, content by HPLC; type: physicochemical; conditions: for (6R)-5,10-CH2-THF hemisulfate remaining: solid, air, 25 °C/60% relative humidity
Experimental: as §1, with “salt, the compounds of the invention” for “salt as pharmaceutical compositions, more specifically as lyophilisates (as prepared according to e.g. Example 5), lyophilisates”

patients = assay: Clinical safety data in patients; type: in vivo; conditions: doses of up to 200 mg/m^2

Nc1nc2c(c(=O)[nH]1)N1CN(c3ccc(C(=O)N[C@@H](CCC(=O)O)C(=O)O)cc3)C[C@H]1CN2 [(6R)-5,10-CH2-THF sulfate, 5,10-methylene-(6R)-tetrahydrofolic acid]
(6R)-5,10-CH2-THF sulfate remaining ([1]; 5 °C, 0 months, after 15 months at −20 °C, relative to value at preparation): 98.7 % rel. | (6R)-5,10-CH2-THF sulfate remaining ([1]; 5 °C, 6 months, after 15 months at −20 °C, relative to value at preparation): 97.3 % rel. | (6R)-5,10-CH2-THF sulfate remaining ([1]; 25 °C/60% rh, 0 months, after 15 months at −20 °C, relative to value at preparation): 98.7 % rel. | (6R)-5,10-CH2-THF sulfate remaining ([1]; 25 °C/60% rh, 6 months, after 15 months at −20 °C, relative to value at preparation): 95.5 % rel. | (6R)-5,10-CH2-THF sulfate remaining ([1]; 40 °C/75% rh, 0 months, after 15 months at −20 °C, relative to value at preparation): 98.7 % rel. | (6R)-5,10-CH2-THF sulfate remaining ([1]; 40 °C/75% rh, 6 months, after 15 months at −20 °C, relative to value at preparation): 95.0 % rel. | (6R)-5,10-CH2-THF sulfate remaining ([1]; −20 °C, 0 months): 100.0 % rel. | (6R)-5,10-CH2-THF sulfate remaining ([1]; −20 °C, 15 months): 98.7 % rel.

Nc1nc2c(c(=O)[nH]1)N1CN(c3ccc(C(=O)N[C@@H](CCC(=O)O)C(=O)O)cc3)C[C@H]1CN2 [(6R)-5,10-CH2-THF hemisulfate salt, 5,10-methylene-(6R)-tetrahydrofolic acid]
Observation (suspension equilibration) ([2]; 2-PrOH with ~2 mM L-ascorbic acid, 40 °C, 3 d): No change | Observation (suspension equilibration) ([2]; AcOH saturated with L-ascorbic acid, 50 °C, 1 d): No change | Observation (suspension equilibration) ([2]; AcOH saturated with L-ascorbic acid, 50 °C, 5 d): No change | Observation (suspension equilibration) ([2]; H2O, 5 °C, 6 d): No change | Observation (suspension equilibration) ([2]; MeCN saturated with L-ascorbic acid, 50 °C, 5 d): No change | Observation (suspension equilibration) ([2]; MeOH/formic acid 1:1, 50 °C, 2 h): No change | Observation (suspension equilibration) ([2]; PEG4500/EtOH 1:9 saturated with L-ascorbic acid, 50 °C, 7 d): No change | Observation (suspension equilibration) ([2]; THF with ~2 mM L-ascorbic acid, 40 °C, 3 d): No change | Observation (suspension equilibration) ([2]; formic acid/THF 1:3, 10-20 °C, 6 d): No change | Stability over a long period of time (conclusion from Table 12) [3]: highly stable | Decomposition temperature (TG-FTIR) [4]: above 210 °C | Exposure of methylenetetrahydrofolate compared to Levoleucovorin ([5]; blood plasma): substantially greater | Peak plasma concentrations of methylenetetrahydrofolate compared to Levoleucovorin ([5]; blood plasma): substantially greater | Concentration of methylenetetrahydrofolate compared to Levoleucovorin ([5]; both tumor and adjacent mucosa): much higher | Concentration of tetrahydrofolate compared to Levoleucovorin ([5]; both tumor and adjacent mucosa): much higher | Stability over a long period of time compared to (6R)-5,10-CH2-THF sulfate ([1]; comparison of Tables 13 and 14 with Example 3): much more stable | Safety at highest dose-level administered (rats): safe | Safety at highest dose-level administered (dogs): safe | X-ray pattern distinctive for crystal form Type 1 [6]: remained unchanged | X-ray pattern distinctive for crystal form Type 1 [7]: remained unchanged | Stability over a long period of time (conclusion from Table 11) ([8]; room temperature, pure compound): highly stable | (6R)-5,10-CH2-THF hemisulfate remaining ([8]; 0 months): 100.0 % rel. | (6R)-5,10-CH2-THF hemisulfate remaining ([8]; 3 months, listed as (6R)-5,10-CH2-THF hemisulfate (batch 1)): 99.7 % rel. | (6R)-5,10-CH2-THF hemisulfate remaining ([8]; 3 months, listed as (6R)-5,10-CH2-THF hemisulfate (batch 2)): 99.9 % rel. | (6R)-5,10-CH2-THF hemisulfate remaining ([8]; 3 months, listed as (6R)-5,10-CH2-THF hemisulfate (batch 3)): 99.5 % rel. | (6R)-5,10-CH2-THF hemisulfate remaining ([8]; 6 months): 99.5 % rel. | (6R)-5,10-CH2-THF hemisulfate remaining ([8]; 6 months, listed as (6R)-5,10-CH2-THF hemisulfate (batch 2)): 99.9 % rel. | (6R)-5,10-CH2-THF hemisulfate remaining ([8]; 9 months, listed as (6R)-5,10-CH2-THF hemisulfate (batch 1)): 99.6 % rel. | (6R)-5,10-CH2-THF hemisulfate remaining ([8]; 9 months, listed as (6R)-5,10-CH2-THF hemisulfate (batch 2)): 100.0 % rel. | (6R)-5,10-CH2-THF hemisulfate remaining ([8]; 9 months, listed as (6R)-5,10-CH2-THF hemisulfate (batch 3)): 99.4 % rel. | (6R)-5,10-CH2-THF hemisulfate remaining ([8]; 12 months, listed as (6R)-5,10-CH2-THF hemisulfate (batch 1)): 99.2 % rel. | (6R)-5,10-CH2-THF hemisulfate remaining ([8]; 12 months, listed as (6R)-5,10-CH2-THF hemisulfate (batch 2)): 99.7 % rel. | (6R)-5,10-CH2-THF hemisulfate remaining ([8]; 12 months, listed as (6R)-5,10-CH2-THF hemisulfate (batch 3)): 99.1 % rel. | (6R)-5,10-CH2-THF hemisulfate remaining ([8]; 18 months, listed as (6R)-5,10-CH2-THF hemisulfate (batch 1)): 99.2 % rel. | (6R)-5,10-CH2-THF hemisulfate remaining ([8]; 18 months, listed as (6R)-5,10-CH2-THF hemisulfate (batch 2)): 99.4 % rel. | (6R)-5,10-CH2-THF hemisulfate remaining ([8]; 18 months, listed as (6R)-5,10-CH2-THF hemisulfate (batch 3)): 99.0 % rel. | (6R)-5,10-CH2-THF hemisulfate remaining ([8]; 24 months, listed as (6R)-5,10-CH2-THF hemisulfate (batch 1)): 99.4 % rel. | (6R)-5,10-CH2-THF hemisulfate remaining ([8]; 24 months, listed as (6R)-5,10-CH2-THF hemisulfate (batch 2)): 99.4 % rel. | (6R)-5,10-CH2-THF hemisulfate remaining ([8]; 24 months, listed as (6R)-5,10-CH2-THF hemisulfate (batch 3)): 99.0 % rel. | (6R)-5,10-CH2-THF hemisulfate remaining ([8]; 36 months, listed as (6R)-5,10-CH2-THF hemisulfate (batch 1)): 98.5 % rel. | (6R)-5,10-CH2-THF hemisulfate remaining ([8]; 36 months, listed as (6R)-5,10-CH2-THF hemisulfate (batch 2)): 99.0 % rel. | Safety for patients (patients): safe
